Test results reported in a compilation of properties of binary mixtures (doi:10.1021/je300932n).

Test: xn = mol fraction of the nth substance listed
Conditions: 101 kPa

In the case of CCCC[n+]1ccn(C)c1.N[C@@H](CC(=O)O)C(=O)[O-] + CO, the electrical conductivity (298.15 K, x1 = 0.0099) is reported as 0.82 S/m, the electrical conductivity (298.15 K, x2 = 0.1001) is reported as 0.087 S/m and the electrical conductivity (298.15 K, x2 = 0.1999) is reported as 0.093 S/m. The electrical conductivity (298.15 K, x2 = 0.398) was 0.125 S/m, the electrical conductivity (298.15 K, x2 = 0.5949) was 0.218 S/m and the electrical conductivity (298.15 K, x2 = 0.6969) was 0.314 S/m. It also gave an electrical conductivity (298.15 K, x2 = 0.9214) of 1.27 S/m, an electrical conductivity (298.15 K, x2 = 0.9501) of 1.36 S/m and an electrical conductivity (298.15 K, x2 = 0.975) of 1.23 S/m. The electrical conductivity (303.15 K, x1 = 0.0099) was 0.89 S/m, the electrical conductivity (303.15 K, x2 = 0.1001) was 0.101 S/m and the electrical conductivity (303.15 K, x2 = 0.2999) was 0.148 S/m. The electrical conductivity (303.15 K, x2 = 0.398) was 0.185 S/m, the electrical conductivity (303.15 K, x2 = 0.5015) was 0.231 S/m and the electrical conductivity (303.15 K, x2 = 0.7957) was 0.75 S/m. It also gave an electrical conductivity (303.15 K, x2 = 0.8988) of 1.22 S/m, an electrical conductivity (303.15 K, x2 = 0.9214) of 1.32 S/m and an electrical conductivity (303.15 K, x2 = 0.9501) of 1.39 S/m. The electrical conductivity (303.15 K, x2 = 0.975) was 1.25 S/m, the electrical conductivity (308.15 K, x1 = 0.0099) was 1 S/m and the electrical conductivity (308.15 K, x2 = 0.1001) was 0.124 S/m. The electrical conductivity (308.15 K, x2 = 0.1999) was 0.155 S/m, the electrical conductivity (308.15 K, x2 = 0.2999) was 0.202 S/m and the electrical conductivity (308.15 K, x2 = 0.5015) was 0.263 S/m. It also gave an electrical conductivity (308.15 K, x2 = 0.5949) of 0.336 S/m, an electrical conductivity (308.15 K, x2 = 0.7957) of 0.83 S/m and an electrical conductivity (308.15 K, x2 = 0.8988) of 1.28 S/m. For the same molecule, the electrical conductivity (308.15 K, x2 = 0.9501) was 1.44 S/m, the electrical conductivity (318.15 K, x1 = 0.0099) was 1.03 S/m and the electrical conductivity (318.15 K, x2 = 0.1001) was 0.205 S/m. The electrical conductivity (318.15 K, x2 = 0.2999) was 0.233 S/m, the electrical conductivity (318.15 K, x2 = 0.398) was 0.26 S/m and the electrical conductivity (318.15 K, x2 = 0.5949) was 0.429 S/m. For the same molecule, the electrical conductivity (318.15 K, x2 = 0.6969) was 0.64 S/m, the electrical conductivity (318.15 K, x2 = 0.9214) was 1.48 S/m and the electrical conductivity (318.15 K, x2 = 0.9501) was 1.57 S/m. For the same molecule, the electrical conductivity (318.15 K, x2 = 0.975) was 1.39 S/m.
